# Columns and labels:
# Assay type in all cases: in vivo
# [1] = test system: Abutilon; assay: Pre-emergence test/greenhouse; details: after three weeks
# Experimental: (§1) Solvent: 5 parts by weight of acetone
# (§2) Emulsifier: 1 part by weight of alkylaryl polyglycol ether
# (§3) To produce a suitable preparation of active compound, 1 part by weight of active compound is mixed with the stated amount of solvent, the stated amount of emulsifier is added and the concentrate is diluted with water to the desired concentration.
# (§4) Seeds of the test plants are sown in normal soil. After about 24 hours, the soil is sprayed with the preparation of active compound such that the particular amounts of active compound desired are applied per unit area. The concentration of the spray liquor is chosen so that the particular amounts of active compound desired are applied in 1000 l of water/ha.
# (§5) After three weeks, the degree of damage to the plants is rated in % damage in comparison to the development of the untreated control.
# (§6) 0%=no effect (like untreated control)
# [2] = test system: Alopecurus; assay: Pre-emergence test/greenhouse; details: after three weeks
# Experimental: as §1, §2, §3, §4, §5, §6
# [3] = test system: Amaranthus; assay: Pre-emergence test/greenhouse; details: after three weeks
# Experimental: as §1, §2, §3, §4, §5, §6
# [4] = test system: Maize; assay: Pre-emergence test/greenhouse; details: after three weeks, crop plant
# Experimental: as §1, §2, §3, §4, §5, §6
# [5] = test system: Sinapis; assay: Pre-emergence test/greenhouse; details: after three weeks
# Experimental: as §1, §2, §3, §4, §5, §6
# [6] = test system: Abutilon; assay: Post-emergence test/greenhouse; details: after three weeks
# Experimental: as §1, §2, §3
# as §4, with “Test plants which have a height” for “Seeds”, “5-15 cm” for “the test plants”, “are” for “are sown in normal soil. After about 24 hours, the soil is”
# as §5, §6
# [7] = test system: Amaranthus; assay: Post-emergence test/greenhouse; details: after three weeks
# Experimental: as §1, §2, §3
# as §4, with “Test plants which have a height” for “Seeds”, “5-15 cm” for “the test plants”, “are” for “are sown in normal soil. After about 24 hours, the soil is”
# as §5, §6
# [8] = test system: Setaria; assay: Post-emergence test/greenhouse
# Experimental: as §1, §2, §3
# as §4, with “Test plants which have a height” for “Seeds”, “5-15 cm” for “the test plants”, “are” for “are sown in normal soil. After about 24 hours, the soil is”
# as §5, §6
# [9] = test system: Sinapis; assay: Post-emergence test/greenhouse; details: Table A-3, 1000 g of ai./ha, after three weeks
# Experimental: as §1, §2, §3
# as §4, with “Test plants which have a height” for “Seeds”, “5-15 cm” for “the test plants”, “are” for “are sown in normal soil. After about 24 hours, the soil is”
# as §5, §6
# [10] = test system: Xanthium; assay: Post-emergence test/greenhouse; details: after three weeks
# Experimental: as §1, §2, §3
# as §4, with “Test plants which have a height” for “Seeds”, “5-15 cm” for “the test plants”, “are” for “are sown in normal soil. After about 24 hours, the soil is”
# as §5, §6
# [11] = test system: weeds; assay: Post-emergence test; details: result in words
# Experimental: as §1, §2, §3
# as §4, with “Test plants which have a height” for “Seeds”, “5-15 cm” for “the test plants”, “are” for “are sown in normal soil. After about 24 hours, the soil is”
# as §5, §6
# [12] = test system: Galium; assay: Pre-emergence test/greenhouse; details: after three weeks
# Experimental: as §1, §2, §3, §4, §5, §6
# [13] = test system: Setaria; assay: Pre-emergence test/greenhouse; details: after three weeks
# Experimental: as §1, §2, §3, §4, §5, §6
# [14] = test system: weeds; assay: Pre-emergence test; details: result in words
# Experimental: as §1, §2, §3, §4, §5, §6
# [15] = test system: crop plants, such as, for example, sunflowers; assay: Pre-emergence test, crop tolerance; details: result in words
# Experimental: as §1, §2, §3, §4, §5, §6
# [16] = Table A-3, 1000 g of ai./ha, after three weeks
smiles,measurement,setting,value
CCC(=O)Nc1nc(NC(CC)COc2ccccc2)nc([C@H](C)Cl)n1 (mixture of isomers) [Example 9],"degree of damage, Abutilon","[1]; Table B-2, 1000 g of ai./ha",95%
same,"degree of damage, Alopecurus","[2]; Table B-2, 1000 g of ai./ha",95%
same,"degree of damage, Amaranthus","[3]; Table B-2, 1000 g of ai./ha",100%
same,"degree of damage, Maize","[4]; Table B-2, 1000 g of ai./ha",20%
same,"degree of damage, Sinapis","[5]; Table B-2, 1000 g of ai./ha",100%
C[C@H](Nc1nc(N)nc([C@@H](C)Cl)n1)c1ccccc1 [Example 18],"degree of damage, Abutilon","[6]; Table A-3, 1000 g of ai./ha",100%
same,"degree of damage, Amaranthus","[7]; Table A-3, 1000 g of ai./ha",100%
same,"degree of damage, Setaria",[8]; [16],100%
same,"degree of damage, Sinapis",[9],100%
same,"degree of damage, Xanthium","[10]; Table A-3, 1000 g of ai./ha",100%
same,activity against weeds,[11],strong activity
CCC(COc1cc(C)cc(C)c1)Nc1nc(N)nc([C@H](C)O)n1 (mixture of isomers) [Example 3],"degree of damage, Abutilon","[1]; Table B-3, 2000 g of ai./ha",100%
same,"degree of damage, Amaranthus","[3]; Table B-3, 2000 g of ai./ha",100%
same,"degree of damage, Galium","[12]; Table B-3, 2000 g of ai./ha",100%
same,"degree of damage, Setaria","[13]; Table B-3, 2000 g of ai./ha",100%
same,"degree of damage, Sinapis","[5]; Table B-3, 2000 g of ai./ha",100%
CC[C@H](Nc1nc(N)nc([C@H](C)Cl)n1)c1ccccc1 [Example 22],"degree of damage, Abutilon","[6]; Table A-3, 1000 g of ai./ha",95%
same,"degree of damage, Amaranthus","[7]; Table A-3, 1000 g of ai./ha",100%
same,"degree of damage, Setaria",[8]; [16],95%
same,"degree of damage, Sinapis",[9],100%
same,"degree of damage, Xanthium","[10]; Table A-3, 1000 g of ai./ha",100%
same,activity against weeds,[11],strong activity
"C[C@H](Nc1nc(N)nc([C@@H](C)O)n1)c1ccccc1 [Example 1, 2-amino-4-(R)-(1-hydroxyethyl)-6-(S)-(1-phenyl-ethylamino)-1,3,5-triazine]","degree of damage, Abutilon","[6]; Table A-1, 1000 g of ai./ha",80%
same,"degree of damage, Amaranthus","[7]; Table A-1, 1000 g of ai./ha",100%
same,"degree of damage, Setaria","[8]; Table A-1, 1000 g of ai./ha, rated after three weeks, 0%=no effect, 100%=total destruction",90%
same,"degree of damage, Xanthium","[10]; Table A-1, 1000 g of ai./ha",95%
same,activity against weeds,[11],strong activity
same,activity against weeds,[14],strong activity
same,tolerance by crop plants,[15],tolerated well
CCC(COc1cc(C)cc(C)c1)Nc1nc(N)nc([C@@H](C)O)n1 (mixture of isomers) [Example 2],"degree of damage, Abutilon","[1]; Table B-2, 1000 g of ai./ha",100%
same,"degree of damage, Alopecurus","[2]; Table B-2, 1000 g of ai./ha",100%
same,"degree of damage, Amaranthus","[3]; Table B-2, 1000 g of ai./ha",80%
same,"degree of damage, Maize","[4]; Table B-2, 1000 g of ai./ha",20%
same,"degree of damage, Setaria","[13]; Table B-2, 1000 g of ai./ha",100%
CCC(COc1cc(C)cc(C)c1)Nc1nc(N)nc([C@@H](C)Cl)n1 (mixture of isomers) [Example 5],"degree of damage, Abutilon","[1]; Table B-1, 1000 g of ai./ha",100%
same,"degree of damage, Galium","[12]; Table B-1, 1000 g of ai./ha",100%
same,"degree of damage, Maize","[4]; Table B-1, 1000 g of ai./ha",20%
same,"degree of damage, Setaria","[13]; Table B-1, 1000 g of ai./ha",100%
CCC(COc1cc(C)cc(C)c1)Nc1nc(N)nc([C@H](C)Cl)n1 (mixture of isomers) [Example 4],"degree of damage, Abutilon","[1]; Table B-3, 2000 g of ai./ha",100%
same,"degree of damage, Alopecurus","[2]; Table B-3, 2000 g of ai./ha",100%
same,"degree of damage, Amaranthus","[3]; Table B-3, 2000 g of ai./ha",95%
same,"degree of damage, Galium","[12]; Table B-3, 2000 g of ai./ha",100%
same,"degree of damage, Setaria","[13]; Table B-3, 2000 g of ai./ha",100%
same,"degree of damage, Sinapis","[5]; Table B-3, 2000 g of ai./ha",100%
CCC(COc1ccccc1)Nc1nc(N)nc([C@H](C)Cl)n1 (mixture of isomers) [Example 7],"degree of damage, Abutilon","[1]; Table B-3, 1000 g of ai./ha",100%
same,"degree of damage, Alopecurus","[2]; Table B-3, 1000 g of ai./ha",95%
same,"degree of damage, Amaranthus","[3]; Table B-3, 1000 g of ai./ha",100%
same,"degree of damage, Galium","[12]; Table B-3, 1000 g of ai./ha",100%
same,"degree of damage, Setaria","[13]; Table B-3, 1000 g of ai./ha",95%
same,"degree of damage, Sinapis","[5]; Table B-3, 1000 g of ai./ha",100%
CC[C@H](Nc1nc(N)nc([C@@H](C)Cl)n1)c1ccccc1 [Example 23],"degree of damage, Abutilon","[6]; Table A-3, 1000 g of ai./ha",95%
same,"degree of damage, Amaranthus","[7]; Table A-3, 1000 g of ai./ha",100%
same,"degree of damage, Setaria",[8]; [16],80%
same,"degree of damage, Sinapis",[9],100%
same,"degree of damage, Xanthium","[10]; Table A-3, 1000 g of ai./ha",100%
same,activity against weeds,[11],strong activity
CCC(CCc1ccsc1)Nc1nc(N)nc([C@H](C)Cl)n1 (mixture of isomers) [Example 15],"degree of damage, Abutilon","[1]; Table B-3, 1000 g of ai./ha",100%
same,"degree of damage, Alopecurus","[2]; Table B-3, 1000 g of ai./ha",100%
same,"degree of damage, Amaranthus","[3]; Table B-3, 1000 g of ai./ha",100%
same,"degree of damage, Galium","[12]; Table B-3, 1000 g of ai./ha",100%
same,"degree of damage, Setaria","[13]; Table B-3, 1000 g of ai./ha",100%
same,"degree of damage, Sinapis","[5]; Table B-3, 1000 g of ai./ha",100%

# From patent US6358886B1, “6-Substituted 2,4-diamino-1,3,5-triazine derivatives having at least two asymmetrically substituted carbon atoms, the production thereof, and their use as herbicides” (Bayer Aktienegesellschaft, priority 1998, dated 2002)
